Results reported in PubChem BioAssay AID256 (DTP/NCI, 2004).
Inconclusive results and toxic doses are left out. How the source made its calls: active means survival T/C of 150% or more; inactive means T/C below 125% in these data.

Test system: CD2F1 mice, L1210 leukemia ip, survival T/C
Assay: NCI In Vivo Anticancer Drug Screen. Data for tumor model L1210 Leukemia (intraperitoneal) in CD2F1 (CDF1) mice
Conditions: endpoint: mean survival time, higher = longer survival
Method in brief: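 Each value reflects a quotient of treated over vehicle control outcomes in mice with a transplanted tumor.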

[1] = dose: 100.0 mg/kg/injection, schedule: Q04DX003 (ip), vehicle: saline with Tween-80
[2] = dose: 200.0 mg/kg/injection, schedule: Q04DX003 (ip), vehicle: saline with Tween-80
[3] = dose: 400.0 mg/kg/injection, schedule: Q04DX003 (ip), vehicle: saline with Tween-80
[4] = dose: 100.0 mg/kg/injection, schedule: Q01DX009 (ip), vehicle: saline with Tween-80
[5] = dose: 200.0 mg/kg/injection, schedule: Q01DX009 (ip), vehicle: saline with Tween-80
[6] = dose: 400.0 mg/kg/injection, schedule: Q04DX003 (ip), vehicle: saline
[7] = dose: 400.0 mg/kg/injection, schedule: Q01DX009 (ip), vehicle: saline with Tween-80
[8] = dose: 100.0 mg/kg/injection, schedule: Q01DX001 (ip), vehicle: saline with Tween-80
[9] = dose: 200.0 mg/kg/injection, schedule: Q01DX001 (ip), vehicle: saline with Tween-80
[10] = dose: 400.0 mg/kg/injection, schedule: Q01DX001 (ip), vehicle: saline with Tween-80

Measured: T/C

CCCSP(SCCC)SCCC
inactive: dose: 50.0 mg/kg/injection, schedule: Q01DX001 (ip), vehicle: Klucel (hydroxypropylcellulose) (HPC) 107 % of control | dose: 100.0 mg/kg/injection, schedule: Q01DX001 (ip), vehicle: Klucel (hydroxypropylcellulose) (HPC) 96 % of control | dose: 200.0 mg/kg/injection, schedule: Q01DX001 (ip), vehicle: Klucel (hydroxypropylcellulose) (HPC) 101 % of control

COc1ccc(SSc2ccc(OC)cc2)cc1
inactive: dose: 100.0 mg/kg/injection, schedule: Q01DX001 (ip), vehicle: saline 100 % of control | dose: 200.0 mg/kg/injection, schedule: Q01DX001 (ip), vehicle: saline 103 % of control | dose: 400.0 mg/kg/injection, schedule: Q01DX001 (ip), vehicle: saline 97 % of control

CCOC(CS(=O)(=O)CC(N)=O)OCC
inactive: [1] 98 % of control | [2] 93 % of control | [3] 104 % of control

c1ccc2c(c1)ccc1c[n+]3ccccc3cc12
inactive: dose: 1.25 mg/kg/injection, schedule: Q01DX009 (ip), vehicle: saline with Tween-80 95 % of control | dose: 5.0 mg/kg/injection, schedule: Q04DX003 (ip), vehicle: saline sonified 96 % of control

COC(=O)c1cccc(C)c1O
inactive: [4] 102 % of control | [1] 97 % of control | [5] 98 % of control | [2] 96 % of control | [3] 93 % of control

CC(CO)CC/C(=N\O)C(C)C1/C(=N/O)CC2C=C3CC(O)CCC3(C)CC21C (stereo not drawn)
inactive: [1] 92 % of control | [2] 92 % of control | [3] 87 % of control

CN(C)c1n[nH]c(N)n1
inactive: dose: 76.0 mg/kg/injection, schedule: Q04DX003 (ip), vehicle: saline 97 % of control | dose: 115.0 mg/kg/injection, schedule: Q04DX003 (ip), vehicle: saline 101 % of control | dose: 174.0 mg/kg/injection, schedule: Q04DX003 (ip), vehicle: saline 104 % of control | dose: 264.0 mg/kg/injection, schedule: Q04DX003 (ip), vehicle: saline 103 % of control | [6] 105 % of control

CC(=O)OCC(OC(C)=O)C(OC(C)=O)C(OC(C)=O)C(OC(C)=O)C(=O)C=O (stereo not drawn)
inactive: dose: 50.0 mg/kg/injection, schedule: Q01DX009 (ip), vehicle: saline with Tween-80 101 % of control | [4] 101 % of control | [5] 109 % of control

COc1ccc(OC)c(NC(=O)NCc2ccccc2Cl)c1
inactive: [4] 90 % of control | [5] 100 % of control | [7] 87 % of control

CC(=O)OC1CCC2(C)C(=C(C)CC3C2CCC2(C)C(C(C)=O)CCC32)C1 (stereo not drawn)
inactive: [4] 98 % of control | [5] 95 % of control | [7] 97 % of control

CCCCC(C(=O)OCC)C(=O)c1ccccc1 (stereo not drawn)
inactive: [1] 96 % of control | [2] 94 % of control | [3] 97 % of control

Nc1nc2c(ncn2-c2ccc(OCCCNC(=O)c3cccc(S(=O)(=O)F)c3)cc2)c(=O)[nH]1
inactive: dose: 75.0 mg/kg/injection, schedule: Q01DX001 (ip), vehicle: saline with Tween-80 92 % of control | dose: 150.0 mg/kg/injection, schedule: Q01DX001 (ip), vehicle: saline with Tween-80 103 % of control | dose: 300.0 mg/kg/injection, schedule: Q01DX001 (ip), vehicle: saline with Tween-80 101 % of control

Cc1cc(SC(=O)N(C)C)c(S(=O)(=O)F)cc1Cl
inactive: dose: 100.0 mg/kg/injection, schedule: Q04DX002 (ip), vehicle: saline with Tween-80 87 % of control | dose: 200.0 mg/kg/injection, schedule: Q04DX002 (ip), vehicle: saline with Tween-80 87 % of control | dose: 400.0 mg/kg/injection, schedule: Q04DX002 (ip), vehicle: saline with Tween-80 93 % of control

O=CNC(CSSCC(NC=O)C(=O)O)C(=O)O (stereo not drawn)
inactive: [4] 100 % of control | [5] 97 % of control | [7] 94 % of control

O=c1c(-c2ccccc2)nn(C2OC(CO)C(O)C(O)C2O)c(=S)n1-c1ccccc1 (stereo not drawn)
inactive: dose: 7.8 mg/kg/injection, schedule: Q01DX005 (ip), vehicle: water 101 % of control | dose: 15.6 mg/kg/injection, schedule: Q01DX005 (ip), vehicle: water 96 % of control | dose: 31.3 mg/kg/injection, schedule: Q01DX005 (ip), vehicle: water 101 % of control | dose: 62.5 mg/kg/injection, schedule: Q01DX005 (ip), vehicle: water 93 % of control | dose: 125.0 mg/kg/injection, schedule: Q01DX005 (ip), vehicle: water 101 % of control

Cc1c2cnccc2c(C)c2c1c1ccccc1n2CCCCCCCl
inactive: [1] 91 % of control | [2] 101 % of control

O=c1[nH]c2cnn(-c3ccccc3)c2[nH]1
inactive: [8] 97 % of control | [9] 97 % of control | [10] 93 % of control

CC(=O)N(C)[Si](C)(C)C
inactive: [8] 96 % of control | dose: 100.0 mg/kg/injection, schedule: Q01DX009 (ip), vehicle: saline sonified 98 % of control | dose: 100.0 mg/kg/injection, schedule: Q04DX003 (ip), vehicle: saline 98 % of control | [9] 100 % of control | dose: 200.0 mg/kg/injection, schedule: Q01DX009 (ip), vehicle: saline sonified 96 % of control | dose: 200.0 mg/kg/injection, schedule: Q04DX003 (ip), vehicle: saline 97 % of control | [10] 106 % of control | dose: 400.0 mg/kg/injection, schedule: Q01DX009 (ip), vehicle: saline sonified 96 % of control | [6] 101 % of control

CC(C[P+](c1ccccc1)(c1ccccc1)c1ccccc1)C(O)(C(=O)c1ccccc1)c1ccccc1 (stereo not drawn)
inactive: dose: 6.25 mg/kg/injection, schedule: Q01DX001 (ip), vehicle: saline with Tween-80 108 % of control | dose: 6.25 mg/kg/injection, schedule: Q01DX009 (ip), vehicle: saline with Tween-80 95 % of control | dose: 12.5 mg/kg/injection, schedule: Q01DX001 (ip), vehicle: saline with Tween-80 103 % of control | dose: 12.5 mg/kg/injection, schedule: Q01DX009 (ip), vehicle: saline with Tween-80 110 % of control | dose: 25.0 mg/kg/injection, schedule: Q01DX001 (ip), vehicle: saline with Tween-80 108 % of control

CO[C@]12[C@@H](COC(N)=O)C3=C(C(=O)C(C)=C(NCC4CCCO4)C3=O)N1C[C@@H]1[C@H]2N1C (stereo partly drawn)
inactive: dose: 1.5 mg/kg/injection, schedule: Q01DX001 (ip), vehicle: saline with Tween-80 102 % of control | dose: 3.0 mg/kg/injection, schedule: Q01DX001 (ip), vehicle: saline with Tween-80 98 % of control | dose: 6.0 mg/kg/injection, schedule: Q01DX001 (ip), vehicle: saline with Tween-80 104 % of control | dose: 12.0 mg/kg/injection, schedule: Q01DX001 (ip), vehicle: saline with Tween-80 104 % of control | dose: 24.0 mg/kg/injection, schedule: Q01DX001 (ip), vehicle: distilled water + Tween-80 114 % of control | dose: 24.0 mg/kg/injection, schedule: Q01DX001 (ip), vehicle: saline with Tween-80 116 % of control | dose: 25.0 mg/kg/injection, schedule: Q01DX001 (ip), vehicle: distilled water + Tween-80 121 % of control | dose: 48.0 mg/kg/injection, schedule: Q01DX001 (ip), vehicle: distilled water + Tween-80 124 % of control | dose: 100.0 mg/kg/injection, schedule: Q01DX001 (ip), vehicle: distilled water + Tween-80 113 % of control
